Assay in all cases: In vitro anti-proliferative activity (MTT assay)
What all share (assay type): cell-based
For orientation: Tetrazolium assays rely on reduction of a dye to a coloured formazan, in cell work by metabolically active cells.

One experiment deals with 4T1. Particulars: Mus musculus, 4T1 (mice breast), 24 h treatment + 48 h culture, average ± SD. Here is the method: (§1) In experimental procedures following cell lines were used, MDA-MB-231 and MCF-7 (human breast cancer), 4T1 (mice breast cancer), DU145 and PC-3 (human prostate cancer), A2780, OVCAR-3 and OVCAR-8 (human ovarian cancer), HepG2 (human liver cancer), A2058, WM983b, HT168-M1/9 and M24 (human melanoma), B16 (mice melanoma), H1975, H1650 and A549 (human lung cancer), HT-29 (human colorectal adenocarcinoma), C26 (mice colon cancer) and PANC-1 (pancreatic cancer) were cultured in RPMI 1640 Medium with glutamine (Roswell Park Memorial Institute Medium, Lonza, Basel, Switzerland). Moreover, U87MG (human malignant glioma) and MRC-5 (normal human fibroblast) were cultured in Dulbecco’s Modified Eagle’s Medium (DMEM, Lonza) and PE/CA-PJ15 and PE/CA-PJ41 (head and neck cancer) were cultured in Iscove’s Modified Dulbecco’s Medium (IMEM, Sigma Aldrich, St. Louis, MO, USA). Apart from the cell culture medium for OVCAR-3 cells, all media were supplemented with 10% heat-inactivated FBS (Fetal Bovine Serum, Euroclone, Milan, Italy) and 1% Penicillin/Streptomycin (Sigma Aldrich), while OVCAR-3 cells were cultured in 20% FBS containing RPMI medium. The cell lines were mainly obtained from ATCC, except for PE/CA-PJ15, PE/CA-PJ41 (ECACC), A2058 (kindly provided by L.A. Liotta, NCI, Bethesda, MD, USA), HT-168-M1/9 (derived from A2058), M24 (kind gift from B.M. Mueller, Scripps Research Institute, La Jolla, CA, USA) and WM983b (kindly provided by Meenhard Herlyn, Wistar Institute, Philadelphia, PA, USA). Cells were cultured in sterile T25 or T75 flasks with ventilation cap (Sarstedt, Nümbrecht, Germany) at 37 °C in a humidified atmosphere with 5% CO2.
(§2) For the evaluation of the in vitro anti-proliferative activity of the GnRH-III conjugates and free Dau, the cell viability was determined by MTT assay (3-(4,5-dimethylthiazol-2-yl)-2,5-diphenyl-tetrazolium bromide) that was obtained from Sigma Aldrich. After standard harvesting of the cells by trypsin-EDTA (Lonza), 4 × 10^3 till 10 × 10^3 cells per well depending on cell line, were seeded in serum containing growth medium to 96-well plates (Sarstedt) and incubated. After 24 h, the growth medium was removed and cells were treated with various concentrations of conjugates 1 and 2 (32 nM–100 µM) or free Dau (0.1 nM–10 µM), dissolved in serum free medium and incubated for 24 h under standard conditions. The control wells were treated with serum free medium. After 24 h of treatment, the cells were washed twice with serum free medium and then cultured in serum containing medium for an additional 48 h. Afterward, the MTT assay was performed, in order to determine cell viability, by adding 20 µL of MTT solution (5 mg/mL in PBS) to each well and after 2 h of incubation at 37 °C, the supernatant was removed. The formazan crystals were dissolved in 100 µL of a 1:1 solution of DMSO (Sigma Aldrich):EtOH (Molar Chemicals Kft., Halásztelek, Hungary) and the absorbance was measured after 15 min. at λ = 570 nm by using a microplate reader (Bio-Rad, model 550, Hercules, CA, USA). The IC50 values of the conjugates and free drug were calculated while using GraphPad Prism 6 (GraphPad Software, San Diego, CA, USA). The experiments were done in triplicate and each experiment was repeated twice.

The test system of a further experiment is A2058. Particulars: Homo sapiens, A2058 (melanoma), 24 h treatment + 48 h culture, average ± SD. Here is the method:
as §1, §2

The subject of another experiment is A2780. Particulars: Homo sapiens, A2780 (ovarian), 24 h treatment + 48 h culture, average ± SD. The protocol: as §1, §2
The next experiment concerns A549. Particulars: Homo sapiens, A549 (lung), 24 h treatment + 48 h culture, average ± SD. The protocol: as §1, §2
The test system of another experiment is B16. Particulars: Mus musculus, B16 (mice melanoma), 24 h treatment + 48 h culture, average ± SD. The protocol: as §1, §2
Another experiment relates to C26. Particulars: Mus musculus, C26 (mice colon), 24 h treatment + 48 h culture, average ± SD. Here is the method: as §1, §2
A further experiment concerns DU145. Particulars: Homo sapiens, DU-145, DU145 (prostate), 24 h treatment + 48 h culture, average ± SD. The protocol: as §1, §2
Another experiment has as its system H1650. Particulars: Homo sapiens, NCI-H1650, H1650 (lung), 24 h treatment + 48 h culture, average ± SD. Here is the method:
as §1, §2

In a further experiment the test system is H1975. Particulars: Homo sapiens, NCI-H1975, H1975 (lung), 24 h treatment + 48 h culture, average ± SD. The protocol: as §1, §2
Another experiment has as its system HT-29. Particulars: Homo sapiens, HT-29 (colon), 24 h treatment + 48 h culture, average ± SD. The protocol: as §1, §2
Another experiment deals with HT168-M1/9. Particulars: Homo sapiens, HT168-M1/9 (melanoma), 24 h treatment + 48 h culture, average ± SD. Here is the method:
as §1, §2

A further experiment has as its system HepG2. Particulars: Homo sapiens, HepG2 (liver), 24 h treatment + 48 h culture, average ± SD. The protocol:
as §1, §2

The subject of the next experiment is M24. Particulars: Homo sapiens, M24 (melanoma), 24 h treatment + 48 h culture, average ± SD. The protocol:
as §1, §2

Another experiment has as its system MCF-7. Particulars: Homo sapiens, MCF7, MCF-7 (breast), 24 h treatment + 48 h culture, average ± SD. The protocol: as §1, §2
The next experiment concerns MDA-MB-231. Particulars: Homo sapiens, MDA-MB-231 (breast), 24 h treatment + 48 h culture, average ± SD. Here is the method:
as §1, §2

A further experiment deals with MRC-5. Particulars: Homo sapiens, MRC5, MRC-5 (normal fibroblast), 24 h treatment + 48 h culture, average ± SD. Here is the method: as §1, §2
In the next experiment the test system is OVCAR-3. Particulars: Homo sapiens, OVCAR-3 (ovarian), 24 h treatment + 48 h culture, average ± SD. The protocol:
as §1, §2

Another experiment has as its system OVCAR-8. Particulars: Homo sapiens, OVCAR-8 (ovarian), 24 h treatment + 48 h culture, average ± SD. Here is the method:
as §1, §2

Another experiment deals with PANC-1. Particulars: Homo sapiens, PANC-1 (pancreas), 24 h treatment + 48 h culture, average ± SD. Here is the method:
as §1, §2

Another experiment has as its system PC-3. Particulars: Homo sapiens, PC-3 (prostate), 24 h treatment + 48 h culture, average ± SD. The protocol: as §1, §2

Molecules are shown by their SMILES.

Usually IC50 stands for the concentration that inhibits the measured activity by half. Consider `COc1cccc2c1C(=O)c1c(O)c3c(c(O)c1C2=O)C[C@@](O)(C(C)=O)C[C@@H]3O[C@H]1C[C@H](N)[C@H](O)[C@H](C)O1` [Dau, daunorubicin], for which the IC50 worked out at 56 ± 14.7 nM with 4T1; 35.1 ± 14.9 nM in the experiment with A2058; 10.4 ± 1.6 nM in the experiment with A2780; 69.3 ± 23.5 nM in the experiment with A549; 26 ± 8 nM with B16; 118 ± 8.6 nM in the experiment on C26. In addition, the IC50 stood at 16.3 ± 4.6 nM in the experiment on DU145; 50.3 ± 13.4 nM in the experiment with H1650; 20.9 ± 2.7 nM in the experiment on H1975; 202.9 ± 1 nM in the experiment on HT-29; 27.5 ± 9.1 nM in the experiment with HT168-M1/9; 22.9 ± 1.4 nM in the experiment with HepG2. Also, the half-maximal inhibitory concentration (IC50) in the experiment with M24 was 119 ± 25 nM; with MCF-7, 63.9 ± 21 nM; with MDA-MB-231, 54.6 ± 7.4 nM; in the experiment on MRC-5 it was 288 ± 35.1 nM; in the experiment on OVCAR-3, 404 ± 9.4 nM; in the experiment on OVCAR-8, 186 ± 99.8 nM. The IC50 is 526 ± 24.7 nM in the experiment on PANC-1 and 32.7 ± 4.7 nM in the experiment on PC-3.
